{
  "source": "paper PMC5672800",
  "about": "(Journal of medicinal chemistry, 2017)",
  "key": {"[1]": {"system": "human MC3R", "details": "cited from earlier work"}, "[2]": {"system": "human MC4R", "details": "cited from earlier work"}, "[3]": {"system": "hMC4R", "details": "cited from earlier work"}, "[4]": {"molecular_target": "T1, mMC3R (Mus musculus, UniProt P33033)", "T1 sequence (P33033 whole entry)": "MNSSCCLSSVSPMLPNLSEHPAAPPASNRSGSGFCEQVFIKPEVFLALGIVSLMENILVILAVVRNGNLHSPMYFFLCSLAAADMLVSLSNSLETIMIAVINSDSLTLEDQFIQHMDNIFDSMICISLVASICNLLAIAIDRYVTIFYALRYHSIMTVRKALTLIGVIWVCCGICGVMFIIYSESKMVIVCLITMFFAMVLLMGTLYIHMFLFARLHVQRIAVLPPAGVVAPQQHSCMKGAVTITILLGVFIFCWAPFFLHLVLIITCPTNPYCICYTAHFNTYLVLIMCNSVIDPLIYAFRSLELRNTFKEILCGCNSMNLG", "test": "125I-NDP-MSH competitive binding assay at mMC3R", "details": "vs Ac-His-DPhe-Arg-Trp-NH2; negative = more potent than control"}, "[5]": {"molecular_target": "T1, mMC3R", "details": "read-out: mMC3R EC50; cited from earlier work"}, "[6]": {"molecular_target": "mMC4R (Mus musculus, UniProt P56450)", "sequence (P56450 whole entry)": "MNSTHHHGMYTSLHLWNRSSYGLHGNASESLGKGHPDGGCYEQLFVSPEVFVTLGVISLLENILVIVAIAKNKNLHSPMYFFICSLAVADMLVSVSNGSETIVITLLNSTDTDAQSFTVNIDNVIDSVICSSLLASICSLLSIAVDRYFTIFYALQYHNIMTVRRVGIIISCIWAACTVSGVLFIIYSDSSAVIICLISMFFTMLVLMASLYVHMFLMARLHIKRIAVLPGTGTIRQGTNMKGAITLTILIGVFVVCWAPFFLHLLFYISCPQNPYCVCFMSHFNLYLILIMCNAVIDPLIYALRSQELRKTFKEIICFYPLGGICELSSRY", "details": "read-out: mMC4R EC50; cited from earlier work"}},
  "data": [
    {"compound": "Tic-(pI)DPhe-Arg-Trp-NH2", "values": [
      {"measurement": "binding to human MC3R", "setting": "[1]", "value": 75, "unit": "nM"},
      {"measurement": "binding to human MC4R", "setting": "[2]", "value": 0.30, "unit": "nM"},
      {"measurement": "hMC4R agonist activation with respect to maximal response", "setting": "[3]", "value": "> 35", "unit": "%"},
      {"measurement": "hMC4R antagonist pA2", "setting": "[3]", "value": 9.10},
      {"measurement": "Ki", "setting": "[3]; read-out: hMC4R antagonist Ki", "value": 0.79, "unit": "nM"}
    ]},
    {"compound": "CC(=O)N[C@@H](CCCNC(=N)N)C(=O)N[C@@H](CCCNC(=N)N)C(=O)N[C@H](Cc1ccc(I)cc1)C(=O)N[C@H](Cc1ccc2ccccc2c1)C(N)=O", "note": "[Compound 41, Ac-Arg-Arg-(pI)DPhe-DNal(2′)-NH2]", "values": [
      {"measurement": "mMC3R (IC50) Fold Diff.", "setting": "[4]", "value": -115}
    ]},
    {"compound": "Ac-Ser-Tyr-Ser-Nle-Glu-His-Arg-Phe-Phe-Gly-Lys-Pro-Val-NH2 (SYSXEHRFFGKPV; HELM PEPTIDE1{[ac].S.Y.S.[Nle].E.H.R.F.F.G.K.P.V.[am]}$$$$V2.0; SMILES CCCC[C@H](NC(=O)[C@H](CO)NC(=O)[C@H](Cc1ccc(O)cc1)NC(=O)[C@H](CO)NC(C)=O)C(=O)N[C@@H](CCC(=O)O)C(=O)N[C@@H](Cc1c[nH]cn1)C(=O)N[C@@H](CCCNC(=N)N)C(=O)N[C@@H](Cc1ccccc1)C(=O)N[C@@H](Cc1ccccc1)C(=O)NCC(=O)N[C@@H](CCCCN)C(=O)N1CCC[C@H]1C(=O)N[C@H](C(N)=O)C(C)C)", "values": [
      {"measurement": "EC50", "setting": "[5]", "value": 480, "unit": "nM"},
      {"measurement": "EC50", "setting": "[6]", "value": 930, "unit": "nM"}
    ]},
    {"compound": "CC(=O)N[C@@H](Cc1c[nH]cn1)C(=O)N[C@H](Cc1ccccc1)C(=O)N[C@@H](CCCNC(=N)N)C(=O)N[C@@H](Cc1c[nH]c2ccccc12)C(N)=O", "note": "[Ac-His-DPhe-Arg-Trp-NH2]", "values": [
      {"measurement": "IC50", "setting": "[1]; read-out: human MC3R IC50, previously reported", "value": "> 10000", "unit": "nM"}
    ]}
  ]
}
